Measurements taken from publication PMC2763345 (PLoS Pathogens, 2009).
In brackets after ≈: the same amount, converted by molar mass. Where two headings read alike, the source gives them in different places.

Columns and labels:
[1] = system: M. tuberculosis H37Rv-GFP; assay: microbe, parasite or virus in culture; format: cell-based, Mycobacterium tuberculosis; conditions: for MIC: Mycobacterium tuberculosis, H37RV
[2] = system: M. tuberculosis H37Rv-GFP in Raw264.7 macrophages; assay: microbe, parasite or virus in culture; format: cell-based, Mycobacterium tuberculosis; conditions: for MIC: Mycobacterium tuberculosis, H37RV
[3] = system: M. smegmatis mc2 155 Wild Type; assay: microbe, parasite or virus in culture; format: cell-based
BCG Wild Type = assay: microbe, parasite or virus in culture; format: cell-based, M. bovis BCG
[4] = system: M. tuberculosis H37Rv-GFP in human primary macrophages; format: cell-based, Mycobacterium tuberculosis
[5] = system: M. tuberculosis H37Rv-GFP in mouse bone marrow-derived macrophages; format: cell-based, Mycobacterium tuberculosis
M. tuberculosis H37Rv [6] = format: cell-based
M. tuberculosis H37Ra [7] = format: cell-based
BCG Pasteur-Tokyo = format: cell-based, M. bovis BCG
M. smegmatis mc2 155 = format: cell-based
[8] = system: Acinetobacter baumannii, Escherichia coli, Enterobacter cloacae, E. aerogenes, Klebsiella oxytoca, Pseudomonas aeruginosa, Salmonella enteridis, Vibrio mimicus; format: cell-based, Gram-negative bacteria
[9] = system: Staphylococcus aureus, S. epidermis, S. capitis, S. xylosus, Micrococcus luteus, Listeria innocua, Lactobacillus gallinarum, group G Streptococcus …; format: cell-based, Gram-positive bacteria
C. striatum = format: cell-based, Corynebacterium striatum
C. jeikeium = format: cell-based, Corynebacterium jeikeium
[10] = system: Candida albicans, C. glabrata, C. parapsilosis; format: cell-based, Fungi
M. tuberculosis H37Ra [11] = format: cell-based; remark: listed apart in the source
M. tuberculosis H37Rv [12] = format: cell-based; remark: listed apart in the source
in vitro = conditions: C57BL/6, mouse
[13] = read-out: In vitro broth growth MIC (µM)
[14] = read-out: In vitro broth growth MIC (µg/mL)
[15] = 120 h, read-out: Intracellular macrophage growth MIC (µM)
[16] = 120 h, read-out: Intracellular macrophage growth MIC (µg/mL)
[17] = Mycolicibacterium smegmatis, MC2155
[18] = Mycobacterium tuberculosis variant bovis BCG, BCG

Row | SMILES | MIC ([1]; read-out: MIC Extracellular) | MIC ([2]; read-out: MIC Intracellular) | MIC [1, 13] | MIC [1, 14] | MIC [2, 15] | MIC [2, 16] | Intracellular macrophage growth Cell toxicity (Raw264.7 macrophages; mouse) | other results
1 | O=C(NCCOCc1cccc(Cl)c1)c1cccc([N+](=O)[O-])c1 [Compound 4] | > 20 µM | > 20 µM |  |  |  |  |  | 
2 | O=C(NCCOCc1cccc(Cl)c1)c1cc([N+](=O)[O-])cc([N+](=O)[O-])c1 [Compound 1] | 0.2 µM | 1 µM |  |  |  |  |  | 
3 | CC[C@@H](CO)NCCN[C@@H](CC)CO [Ethambutol] |  |  | 4.9 µM | 1 µg/mL | 4.9 µM | 1 µg/mL | >20 µM | differences in MIC between the two assays (broth and intracellular) [2]: No major differences
4 | O=C(NCCOCc1cccc(Cl)c1)c1cc(NO)cc([N+](=O)[O-])c1 [Compound 3] | > 20 µM | > 20 µM |  |  |  |  |  | 
5 | NNC(=O)c1ccncc1 [Isoniazid] |  |  | 1.2 µM | 0.16 µg/mL | 1.2 µM | 0.16 µg/mL | >150 µM | differences in MIC between the two assays (broth and intracellular) [2]: No major differences
6 | COC(=O)c1ccc(O[C@H]2CCN(C(=O)c3cc([N+](=O)[O-])cc([N+](=O)[O-])c3)C2)cc1 [Compound 11-(S)] | 0.08 µM | > 20 µM |  |  |  |  |  | 
7 | [H]/N=C(/N)N[C@H]1[C@H](O)[C@@H](O)[C@H](O[C@@H]2O[C@@H](C)[C@](O)(C=O)[C@H]2O[C@@H]2O[C@@H](CO)[C@H](O)[C@@H](O)[C@@H]2NC)[C@@H](N/C(N)=N\[H])[C@@H]1O [Streptomycin] |  |  | 1.5 µM | 0.9 µg/mL | > 35 µM | > 20 µg/mL | >35 µM | 
8 | COc1ccc(O[C@H]2CCCN(C(=O)c3cc([N+](=O)[O-])cc([N+](=O)[O-])c3)C2)cc1 [Compound 12-(S)] | 6 µM | 20 µM |  |  |  |  |  | 
9 | NCC[C@H](O)C(=O)N[C@@H]1C[C@H](N)[C@@H](O[C@H]2O[C@H](CN)[C@@H](O)[C@H](O)[C@H]2O)[C@H](O)[C@H]1O[C@H]1O[C@H](CO)[C@@H](O)[C@H](N)[C@H]1O [Amikacin] |  |  | 0.07 µM | 0.04 µg/mL | > 150 µM | > 20 µg/mL | >150 µM | 
10 | CO[C@H]1/C=C/O[C@@]2(C)Oc3c(C)c(O)c4c(O)c(c(/C=N/N5CCN(C)CC5)c(O)c4c3C2=O)NC(=O)/C(C)=C\C=C\[C@H](C)[C@H](O)[C@@H](C)[C@@H](O)[C@@H](C)[C@H](OC(C)=O)[C@@H]1C [Rifampin] |  |  | 0.01 µM | 0.01 µg/mL | 2.9 µM | 2.4 µg/mL | 24 µM | MIC [3]: 0.31 µg/mL (≈ 0.377 µM); MIC (BCG Wild Type): 0.31 µg/mL (≈ 0.377 µM)
11 | O=C(NCCOCc1cccc(C(F)(F)F)c1)c1cc([N+](=O)[O-])cc([N+](=O)[O-])c1 [Compound 6] | 0.2 µM | 0.2 µM |  |  |  |  |  | 
12 | COc1ccc(OCCNC(=O)c2cc([N+](=O)[O-])cc([N+](=O)[O-])c2)cc1 [Compound 8, N-(2-(4-methoxyphenoxy)ethyl)-3,5-dinitrobenzamide] | 0.2 µM | 0.2 µM |  |  |  |  |  | decrease in the number of CFUs [4]: More than a ten-fold decrease; decrease in the number of CFUs [5]: More than a ten-fold decrease; Range of MICs for multiple strains (M. tuberculosis H37Rv [6]): 0.2 µM; Range of MICs for multiple strains (M. tuberculosis H37Ra [7]): 0.2 µM; Range of MICs for multiple strains (BCG Pasteur-Tokyo): 0.2 µM; Range of MICs for multiple strains (M. smegmatis mc2 155): 0.4 µM; Range of MICs for multiple strains [8]: > 250 µM; Range of MICs for multiple strains [9]: > 250 µM; Range of MICs for multiple strains (C. striatum): 27 µM; Range of MICs for multiple strains (C. jeikeium): 2.7 µM; Range of MICs for multiple strains [10]: > 250 µM; MIC [3, 17]: 0.15 µg/mL (≈ 0.415 µM); MIC (BCG Wild Type; [18]): 0.075 µg/mL (≈ 0.208 µM); effect on the synthesis of the arabinan domains of arabinogalactan (AG) and lipoarabinomannan (LAM) (M. tuberculosis H37Ra [11]): clear-cut effect; effects on the biosynthesis of fatty acids, mycolic acids and/or other lipids (M. tuberculosis H37Ra [11]): no effects; bactericidal effect on M. tuberculosis (M. tuberculosis H37Rv [12]): time-dependent; IC50 (in vitro): 50 µM
13 | CO[C@H]1/C=C/O[C@@]2(C)Oc3c(C)c(O)c4c(c3C2=O)C2=NC3(CCN(CC(C)C)CC3)NC2=C(NC(=O)/C(C)=C\C=C\[C@H](C)[C@H](O)[C@@H](C)[C@@H](O)[C@@H](C)[C@H](OC(C)=O)[C@@H]1C)C4=O [Rifabutin] |  |  | 0.01 µM | 0.01 µg/mL | 0.11 µM | 0.1 µg/mL | >20 µM | 
14 | CCc1cc(C(N)=S)ccn1 [Ethionamide] |  |  | 6 µM | 1 µg/mL | 6 µM | 1 µg/mL | 120 µM | differences in MIC between the two assays (broth and intracellular) [2]: No major differences
15 | O=C(NCCOCc1ccccc1F)c1cc([N+](=O)[O-])cc([N+](=O)[O-])c1 [Compound 5] | 0.08 µM | 0.2 µM |  |  |  |  |  | 
16 | O=[N+]([O-])c1cn2c(n1)OC[C@@H](OCc1ccc(OC(F)(F)F)cc1)C2 [PA-824] |  |  | 0.22 µM | 0.08 µg/mL | 0.22 µM | 0.08 µg/mL | >20 µM | differences in MIC between the two assays (broth and intracellular) [2]: No major differences
17 | NC(=O)c1cnccn1 [Pyrazinamide] |  |  | > 150 µM | > 20 µg/mL | > 150 µM | > 20 µg/mL | >150 µM | 
18 | COc1ccc(O[C@H]2CCN(C(=O)c3cc([N+](=O)[O-])cc([N+](=O)[O-])c3)C2)cc1 [Compound 10-(S)] | 0.08 µM | 20 µM |  |  |  |  |  | 
19 | O=C(NCCOCc1ccccc1)c1cc([N+](=O)[O-])cc([N+](=O)[O-])c1 [Compound 7, N-(2-(benzyloxy)ethyl)-3,5-dinitrobenzamide] | 0.2 µM | 0.2 µM |  |  |  |  |  | Range of MICs for multiple strains (M. tuberculosis H37Rv [6]): 0.2 µM; Range of MICs for multiple strains (M. tuberculosis H37Ra [7]): 0.2 µM; Range of MICs for multiple strains (BCG Pasteur-Tokyo): 0.2 to 0.7 µM; Range of MICs for multiple strains (M. smegmatis mc2 155): 0.4 µM; Range of MICs for multiple strains [8]: > 250 µM; Range of MICs for multiple strains [9]: > 250 µM; Range of MICs for multiple strains (C. striatum): 27 µM; Range of MICs for multiple strains (C. jeikeium): 2.7 µM; Range of MICs for multiple strains [10]: > 250 µM; MIC [3, 17]: 0.25 µg/mL (≈ 0.724 µM); MIC (BCG Wild Type; [18]): 0.25 µg/mL (≈ 0.724 µM); effect on the synthesis of the arabinan domains of arabinogalactan (AG) and lipoarabinomannan (LAM) (M. tuberculosis H37Ra [11]): clear-cut effect; effects on the biosynthesis of fatty acids, mycolic acids and/or other lipids (M. tuberculosis H37Ra [11]): no effects; bactericidal effect on M. tuberculosis (M. tuberculosis H37Rv [12]): time-dependent; IC50 (in vitro): 50 µM
20 | NC(=O)c1c(NC(=O)C2CC2)sc2c1CCCC2 [AX20017] |  |  |  |  |  |  |  | In vitro broth growth MIC (µM) [1]: >20 µM; In vitro broth growth MIC (µg/mL) [1]: >5 µg/mL; Intracellular macrophage growth MIC (µM) [2]: >20 µM; Intracellular macrophage growth MIC (µg/mL) [2]: >5 µg/mL; Intracellular macrophage growth Cell toxicity (Raw264.7 macrophages): >20 µM
21 | C[C@H]1COc2c(N3CCN(C)CC3)c(F)cc3c(=O)c(C(=O)O)cn1c23 [Levofloxacin] |  |  | 2.5 µM | 0.9 µg/mL | > 20 µM | > 10 µg/mL | >20 µM | 
22 | CC(=O)O[C@H]1C[C@@]2(C)[C@@H](C[C@@H](O)[C@H]3[C@@]4(C)CC[C@@H](O)[C@@H](C)[C@@H]4CC[C@@]32C)/C1=C(\CCC=C(C)C)C(=O)O [Fusidic Acid] |  |  | 1 µM | 0.5 µg/mL | 20 µM | 10 µg/mL | >20 µM | 
23 | Nc1cc(C(=O)NCCOCc2cccc(Cl)c2)cc([N+](=O)[O-])c1 [Compound 2] | > 20 µM | > 20 µM |  |  |  |  |  | 
24 | O=C(NCCOc1ccccc1F)c1cc([N+](=O)[O-])cc([N+](=O)[O-])c1 [Compound 9] | 0.2 µM | 0.7 µM |  |  |  |  |  | 
